According to ChEMBL document CHEMBL5360550 (Eur J Med Chem, 2023):
Calls of active or inactive are those of the source. No cut-off for these calls is given here.

Experiments:
Plasmodium falciparum = test: Antiprotozoal activity against chloroquine resistant Plasmodium falciparum K1 infected in human erythrocytes assessed as parasite growth inhibition incubated for 48 hrs by [3H]-hypoxanthine incorporation assay based Betaplate liquid scintillation counter method; format: functional, organism-based; conditions: K1, Erythrocyte
[1] = Selectivity index, ratio of IC50 for cytotoxicity against rat L6 cells to IC50 for antiprotozoal activity against chloroquine resistant Plasmodium falciparum K1 infected in human erythrocytes; format: toxicity, cell-based; conditions: read-out: Ratio IC50
AT rich DNA [2] = test system: AT rich DNA
Description: Binding affinity to double stranded [poly(dA-dT)2] DNA (unknown origin) minor groove assessed as increase in melting temperature by spectrophotometer analysis

[3] = Cytotoxicity against rat L6 cells assessed as reduction in cell viability incubated for 70 hrs by Alamar blue based microplate fluorescence assay; format: toxicity
[4] = test system: Trypanosoma brucei rhodesiense; test: Antiprotozoal activity against long slender blood stream form Trypanosoma brucei rhodesiense STIB900 assessed as parasite growth inhibition incubated for 70 hrs by resazurin based microplate fluorometer analysis; format: functional, organism-based; conditions: STIB900, 70 h
[5] = Selectivity index, ratio of IC50 for cytotoxicity against rat L6 cells to IC50 for antiprotozoal activity against long slender blood stream form Trypanosoma brucei rhodesiense STIB900; format: toxicity, cell-based; conditions: read-out: Ratio IC50
[6] = test system: Trypanosoma brucei rhodesiense; test: In vivo antiprotozoal activity against acute hemolymphatic stage Trypanosoma brucei rhodesiense STIB900 infected in NMRI mouse assessed as reduction of parasitaemia at 5 mg/kg, ip for 4 days consecutive and measured upto 60 days relative to control; format: functional; parameters: scale not given: the % may be the effect or the level left
AT rich DNA [7] = test: Binding affinity to double stranded [poly(dA-dT)2] DNA (unknown origin) minor groove assessed as increase in positive induced CD signal in 360 to 400 nanometer absorption range incubated for 10 mins by circular dichroism spectroscopy; format: nucleic-acid assay
[8] = test system: Trypanosoma brucei rhodesiense; test: In vivo antiprotozoal activity against acute hemolymphatic stage Trypanosoma brucei rhodesiense STIB900 infected in NMRI mouse assessed as reduction of parasitaemia at 10 mg/kg, ip for 4 days consecutive and measured upto 60 days relative to control; format: functional; parameters: scale not given: the % may be the effect or the level left; conditions: time 4 day

## N=C(N)c1ccc(-c2ccc(-c3cc4cc(C(=N)N)ccc4[nH]3)[se]2)cc1
Plasmodium falciparum
  IC50: 3.9 nM
[1]
  selectivity ratio: 5510
AT rich DNA [2]
  ΔTm: > 30 °C
[3]
  IC50 at 70 h: 21.5 µM
[4]
  IC50: 3 nM
[5]
  selectivity ratio: 7170
[6]; time 4 day
  Activity: 50%
AT rich DNA [7]
  Activity: Active

## N=C(N)c1ccc(-c2ccc(-c3cc4cc(C(=N)N)ccc4[nH]3)o2)nc1
Plasmodium falciparum
  IC50: 5.8 nM
[1]
  selectivity ratio: 8690
AT rich DNA [2]
  ΔTm: 27 °C
[3]
  IC50 at 70 h: 50.4 µM
[4]
  IC50: 6 nM
[5]
  selectivity ratio: 8400
[6]; time 4 day
  Activity: 75%

## N=C(N)c1ccc(-c2ccc(-c3nc4ccc(C(=N)N)cc4[nH]3)s2)cc1
Plasmodium falciparum
  IC50: 11.8 nM
[1]
  selectivity ratio: 1900
[8]
  Activity: 75%
AT rich DNA [2]
  ΔTm: > 30 °C
[3]
  IC50 at 70 h: 22.4 µM
[4]
  IC50: 27 nM
[5]
  selectivity ratio: 829

## N=C(N)c1ccc(-c2ccc(-c3cc4ccc(C(=N)N)cc4[nH]3)o2)cc1
Plasmodium falciparum
  IC50: 4.6 nM
[1]
  selectivity ratio: 2800
AT rich DNA [2]
  ΔTm: > 30 °C
[3]
  IC50 at 70 h: 12.9 µM
[4]
  IC50: 12 nM
[5]
  selectivity ratio: 1080
[6]; time 4.0 day
  Activity: inactive
AT rich DNA [7]
  Activity: Active

## N=C(N)c1ccc(-c2ccc(-c3cc4cc(C(=N)N)ccc4[nH]3)s2)cc1
Plasmodium falciparum
  IC50: 2.8 nM
[1]
  selectivity ratio: 6070
AT rich DNA [2]
  ΔTm: 29 °C
[3]
  IC50 at 70 h: 17 µM
[4]
  IC50: 6 nM
[5]
  selectivity ratio: 2830
[6]; time 4 day
  Activity: 50%

## N=C(N)c1ccc(-c2ccc(-c3cc4cc(C(=N)N)ccc4[nH]3)o2)cc1
Plasmodium falciparum
  IC50: 2.8 nM
[1]
  selectivity ratio: 5070
AT rich DNA [2]
  ΔTm: 29 °C
[3]
  IC50 at 70 h: 14.2 µM
[4]
  IC50: 2 nM
[5]
  selectivity ratio: 7100
[6]; time 4 day
  Activity: 75%
AT rich DNA [7]
  Activity: Active

## Cc1cc(C(=N)N)ccc1-c1ccc(-c2cc3ccc(C(=N)N)cc3[nH]2)o1
AT rich DNA [2]
  ΔTm: > 30 °C
[3]
  IC50 at 70 h: 5.1 µM
[4]
  IC50: 6 nM
[5]
  selectivity ratio: 850
[6]; time 4.0 day
  Activity: inactive

## N=C(N)c1ccc(-c2ccc(-c3ccc(C(=N)N)cc3)o2)cc1 [FURAMIDINE]
AT rich DNA [2]
  ΔTm: 25 °C
[6]; time 4 day
  Activity: 25%

## N=C(N)c1ccc(-c2ccc(-c3cc4ccc(C(=N)N)cc4[nH]3)s2)nc1
AT rich DNA [2]
  ΔTm: 29 °C
[3]
  IC50 at 70 h: 14.5 µM
[4]
  IC50: 15 nM
[5]
  selectivity ratio: 966
[6]; time 4.0 day
  Activity: inactive

## COc1cc(C(=N)N)ccc1-c1ccc(-c2cc3ccc(C(=N)N)cc3[nH]2)o1
AT rich DNA [2]
  ΔTm: 27 °C
[3]
  IC50 at 70 h: 11 µM
[4]
  IC50: 39 nM
[5]
  selectivity ratio: 283

## N=C(N)c1ccc(-c2ccc(-c3nc4cc(C(=N)N)ccc4[nH]3)o2)cc1
Plasmodium falciparum
  IC50: 95.8 nM
[1]
  selectivity ratio: 105
AT rich DNA [2]
  ΔTm: 25 °C
[3]
  IC50 at 70 h: 10.1 µM
[4]
  IC50: 122 nM
[5]
  selectivity ratio: 82
[6]; time 4 day
  Activity: 25%

## N=C(N)c1ccc2cc(-c3ccc(-c4ccc(C(=N)N)nc4)o3)[nH]c2c1
Plasmodium falciparum
  IC50: 3.6 nM
[1]
  selectivity ratio: 3940
AT rich DNA [2]
  ΔTm: 28 °C
[3]
  IC50 at 70 h: 14.2 µM
[4]
  IC50: 7 nM
[5]
  selectivity ratio: 2030
[6]; time 4.0 day
  Activity: inactive

## N=C(N)c1ccc(-c2ccc(-c3cc4ccc(C(=N)N)cc4[nH]3)o2)nc1
Plasmodium falciparum
  IC50: 6.4 nM
[1]
  selectivity ratio: 5440
AT rich DNA [2]
  ΔTm: 28 °C
[3]
  IC50 at 70 h: 34.8 µM
[4]
  IC50: 17 nM
[5]
  selectivity ratio: 2050
[6]; time 4 day
  Activity: 75%
AT rich DNA [7]
  Activity: Active

## N=C(N)c1ccc(-c2ccc(-c3cc4ccc(C(=N)N)cc4[nH]3)s2)cc1
Plasmodium falciparum
  IC50: 7.2 nM
[1]
  selectivity ratio: 1720
AT rich DNA [2]
  ΔTm: > 30 °C
[3]
  IC50 at 70 h: 12.4 µM
[4]
  IC50: 12 nM
[5]
  selectivity ratio: 1030
[6]; time 4.0 day
  Activity: inactive
AT rich DNA [7]
  Activity: Active
